Experimental data from patent US11918550B2, “Sensitization of cancer cells to differentiation therapy with mitochondrial uncoupler niclosamide ethanolamine” (The Board of Trustees of the Leland Stanford Junior …, priority 2020, dated 2024).

Columns and labels:
[1] = system: orthotopic neuroblastoma xenograft (SK-N-BE(2) cells); experiment: Metabolite levels in orthotopic xenograft tumors by LC/MS; type: in vivo, mice; settings: diet 2000 ppm NEN vs control
Method: (§1) Metabolic analysis. For the metabolomics and isotope tracing analysis in vitro, cells were washed with cold PBS, lysed in 80% Ultra LC-MS acetonitrile on ice for 15 minutes, centrifuged at 20,000 g for 10 minutes at 4° C., and supernatant was subjected to mass spectrometry analysis. For the metabolomics analysis in vivo, 10-20 mg tissue were cut off on ice, rinsed if necessary to remove blood, and place in a 2 ml round-bottom cryovial. The tissues were homogenized by 3 times 10 s on/off bursts homogenization in 1 ml 80% methanol on dry ice. Transfer the homogenate to an Eppendorf tube and keep on liquid nitrogen while processing the remaining samples. Incubated all the samples in −80° C. for 30 minutes. After incubation, vortexed the samples for 5 seconds. Then centrifuged the samples at 20,000 g for 10 minutes at 4° C., and supernatant was subjected to mass spectrometry analysis. Resuspend the remaining cellular pellet in 100 ul protein lysis buffer and determine the protein concentration. Then calculate the total protein content per sample.
Liquid chromatography was performed using an Agilent 1290 Infinity LC system (Agilent, Santa Clara, US) coupled to a Q-TOF 6545 mass spectrometer (Agilent, Santa Clara, US). A hydrophilic interaction chromatography method (HILIC) with a BEH amide column (100×2.1 mm i.d., 1.7 μm; Waters) was used for compound separation at 35° C. with a flow rate of 0.3 ml/minutes. The mobile phase A consisted of 25 mM ammonium acetate and 25 mM ammonium hydroxide in water and mobile phase B was acetonitrile. The gradient elution was 0-1 minute, 85% B; 1-12 minutes, 85% B→65% B; 12-12.2 minutes, 65% B→40% B; 12.2-15 minutes, 40% B. After the gradient, the column was re-equilibrated at 85% B for 5 minutes. The overall runtime was 20 minutes, and the injection volume was 5 μL. […]
(§2) Mouse orthotopic neuroblastoma model. […] Tumor formation was monitored by non-invasive ultrasound measurements, and the animals euthanized when the tumor volume exceeded 1,000 mm^3.

HIF2α = experiment: Western blot of nuclear HIF2α under normoxia or hypoxia; type: cell-based; settings: SK-N-BE(2), 2 or 4 μM NEN, 3.5 mM α-KG
Method: Protein extraction and immunoblot. […] Cell lysate was centrifuged at 3000 rpm for 3 min at 4° C. The supernatant containing cytosolic proteins was transferred to a different tube. […] Then the solution was sonicated at 4° C. for 6 cycles (1 cycle=30 s sonication and 30 s cooldown with “High” energy intensity) using a Bioruptor® Plus sonication (Diagenode, UCD-300). After sonication, the solution was centrifuged at 15,000 rpm for 10 minutes. The supernatant was kept as nuclear extraction. […] After blocking in 5% non-fat milk for 30 minutes at room temperature (RT), the primary antibody was added for incubation overnight at 4° C.

[2] = Plasma and tissue NEN levels under dietary NEN supplementation (LC/MS); type: in vivo; settings: mice, diet that contains 2000 ppm NEN
Method: as §1
Liquid chromatography was performed using an Agilent 1290 Infinity LC system (Agilent, Santa Clara, US) coupled to a Q-TOF 6545 mass spectrometer (Agilent, Santa Clara, US). […]
as §2

SK-N-BE(2) cells [3] = experiment: Proliferation after hypoxia pretreatment and replating; type: cell-based; settings: 1 μM NEN under hypoxia 4 days, replated under normoxia, counted after 5 days
Method: Cell proliferation and clonogenic assay. 2×10^4 cells were seeded in 12 well-plate and allowed to attached overnight. Then the cells were treated with various conditions as indicated for 48 h or 96 h (n=3). After treatment, cells were counted using hemocytometer.

[4] = system: HIF target genes such as pdk1, pdk3, pgk1 and Idha; experiment: RT-PCR of HIF target genes; type: cell-based; settings: SK-N-BE(2), 2 or 4 μM NEN, normoxia or hypoxia
Method: RNA isolation, reverse transcription, and real-time PCR. The procedure was performed as described before. Briefly, total RNA was isolated from 60 mm tissue culture plates according to the TRIzol Reagent (Invitrogen, 15596026) protocol. 3 μg of total RNA was used in the reverse transcription reaction using the iScript cDNA synthesis kit (Bio-Rad). Quantitative PCR amplification was performed on the Prism 7900 Sequence Detection System (Applied Biosystems) using Taqman Gene Expression Assays (Applied Biosystems). Gene expression level were normalized to 18S rRNA.

SK-N-BE(2) cells [5] = experiment: Methylated DNA Immunoprecipitation (MeDIP)-qRT-PCR; type: cell-based; settings: 1 μM NEN 5 h
Method: Methylated DNA Immunoprecipitation. 5×10^5 SK-N-BE(2) cells were plated in 60 mm dishes. […] After treatment, the cells were collected for DNA extraction as described above. 10 μg genomic DNA was sheared using a Bioruptor® Plus sonicator (Diagenode, UCD-300) to 550 bp fragments according to the instrument manual. Agarose electrophoresis was employed to examine the sizes of DNA fragments. The sonicated DNA samples were denatured at 95° C. for 15 minutes, then kept on ice immediately for at least 5 minutes. 200 ng denatured DNA was transferred to a new tube for input control and diluted with EDTA-free TE buffer to 100 μl total volume. For each pulldown reaction, transfer 600 ng of denatured DNA solution to new tubes and add EDTA-free TE buffer to 300 μl total volume. Add 2 μl antibody (5-mc or IgG control) and 20 μl prewashed Dynabeads™ Protein A (Invitrogen™, 10001 D) into the tubes and incubate the samples at 4° C. for 60 minutes with rotation. After incubation, place the tubes in magnetic rack for 30 s to allow the beads separate from solution. Remove the solution carefully without disturbing the beads. Wash the beads for 4 times by IP buffer (0.01% SDS, 1% Triton X-100, 2 mM EDTA, 20 mM Tris-HCl pH 8.1, 150 mM NaCl). DNA was eluted by resuspending the beads in 100 μl of digestion buffer (10 mM Tris pH 8.0, 1 mM EDTA, 1% SDS, 1 μg/μl proteinase K) and incubated for 6 hr at 65° C. […]

O=C(Nc1ccc([N+](=O)[O-])cc1Cl)c1cc(Cl)ccc1O [NEN, 5-chloro-N-(2-chloro-4-nitrophenyl)-2-hydroxybenzamide compound with 2-aminoethanol (1:1)]
2-HG level in the tumor [1]: reduced
NAD+/NADH in the tumor [1]: increased
lactate level in the tumor [1]: slightly reduced
inhibition of the accumulation of HIF2a protein (HIF2α): inhibited
NEN accumulation in plasma [2]: 1 to 3 µM
gain of proliferation advantage from hypoxia pretreatment (SK-N-BE(2) cells [3]): blocked
expression of HIF target genes such as pdk1, pdk3, pgk1 and Idha [4]: reduced
methylation on promoter region of genes in RAR signaling (SK-N-BE(2) cells [5]): reduced
